These are literature values, as cited in patent US20100273711A1, “INDIVIDUALIZED CANCER TREATMENTS” (priority 2007, published 2010).

For one data set, the system named is MDA-MB-231. The conditions noted are these: pemetrexed, cell line MDA-MB-231; cited from earlier work.
The subject of the next data set is SK-MEL-28. The conditions noted are these: pemetrexed, cell line SK-MEL-28; cited from earlier work.
For the next data set, the system named is NCI-H226. Particulars: pemetrexed, cell line NCI-H226; cited from earlier work.
Another data set concerns K-562. Particulars: pemetrexed, cell line K-562; cited from earlier work.
A further data set relates to BT20. Particulars: pemetrexed, cell line BT20; cited from earlier work.
The test system of a further data set is HCT-116. Particulars: pemetrexed, cell line HCT-116; cited from earlier work.
The subject of another data set is C8161. The conditions noted are these: pemetrexed, cell line C8161; cited from earlier work.
The next data set has as its system ES2. The conditions noted are these: pemetrexed, cell line ES2; cited from earlier work.
A further data set has as its system NCI-H460. Particulars: pemetrexed, cell line NCI-H460; cited from earlier work.
For the next data set, the system named is HS578T. Particulars: pemetrexed, cell line HS578T; cited from earlier work.
Another data set deals with HCC-2998. The conditions noted are these: pemetrexed, cell line HCC-2998; cited from earlier work.
A further data set deals with 257p. The conditions noted are these: pemetrexed, cell line 257P; cited from earlier work.
The subject of another data set is FUOV1. Particulars: pemetrexed, cell line FUOV1; cited from earlier work.
Another data set concerns A375. The conditions noted are these: pemetrexed, cell line A375; cited from earlier work.
The subject of the next data set is DV90. The conditions noted are these: pemetrexed, cell line DV90; cited from earlier work.

In the case of `Nc1nc2[nH]cc(CCc3ccc(C(=O)N[C@@H](CCC(=O)O)C(=O)O)cc3)c2c(=O)[nH]1` [Pemetrexed, pemetrexed], the “Resistant (Res) or Sensitive (Sen)” value with MDA-MB-231 was “Sen”; in the data set on SK-MEL-28, “Sen”; with NCI-H226, “Sen”; with K-562, “Res”; in the data set on BT20 it was “Sen”; in the data set on HCT-116, “Res”. The “Resistant (Res) or Sensitive (Sen)” value in the data set on C8161 is “Res”; in the data set with ES2 it was “Res”; in the data set with NCI-H460, “Res”; with HS578T, “Sen”; with HCC-2998 it was “Res”; in the data set on 257p it was “Res”. In addition, the “Resistant (Res) or Sensitive (Sen)” value in the data set with FUOV1 is given as “Sen”; in the data set on A375, “Res”; in the data set on DV90, “Sen”.
